{"source": "ChEMBL document CHEMBL2034833", "about": "“Synthesis of chalcone-amidobenzothiazole conjugates as antimitotic and apoptotic inducing agents” (Bioorg Med Chem, 2012)", "key": {"[1]": {"system": "786-0", "assay": "Growth inhibition of human 786-0 cells after 48 hrs by sulforhodamine B assay", "type": "functional", "details": "786-0, 48 h"}, "[2]": {"system": "A498", "assay": "Growth inhibition of human A498 cells after 48 hrs by sulforhodamine B assay", "type": "functional", "details": "A498, 48 h"}, "[3]": {"system": "ACHN", "assay": "Growth inhibition of human ACHN cells after 48 hrs by sulforhodamine B assay", "type": "functional"}, "[4]": {"system": "CAKI-1", "assay": "Growth inhibition of human CAKI-1 cells after 48 hrs by sulforhodamine B assay", "type": "functional", "details": "CAKI-1, 48 h"}, "[5]": {"system": "RXF 393", "assay": "Growth inhibition of human RXF393 cells after 48 hrs by sulforhodamine B assay", "type": "functional", "details": "RXF 393, 48 h"}, "[6]": {"system": "SN12C", "assay": "Growth inhibition of human SN12C cells after 48 hrs by sulforhodamine B assay", "type": "functional"}, "[7]": {"system": "TK-10", "assay": "Growth inhibition of human TK10 cells after 48 hrs by sulforhodamine B assay", "type": "functional", "details": "TK-10, 48 h"}, "[8]": {"system": "UO-31", "assay": "Growth inhibition of human UO31 cells after 48 hrs by sulforhodamine B assay", "type": "functional", "details": "UO-31, 48 h"}, "[9]": {"system": "A549", "assay": "Cell cycle arrest in human A549 cells assessed as cell accumulation at subG1 phase at 2 uM after 48 hrs by propidium iodide staining based flow cytometry (reference value: […])", "type": "functional"}, "[10]": {"system": "A549", "assay": "Cell cycle arrest in human A549 cells assessed as cell accumulation at subG1 phase at 4 uM after 48 hrs by propidium iodide staining based flow cytometry (reference value: […])", "type": "functional"}, "[11]": {"system": "A549", "assay": "Cell cycle arrest in human A549 cells assessed as cell accumulation at G0/G1 phase at 2 uM after 48 hrs by propidium iodide staining based flow cytometry (reference value: 70.15%)", "type": "functional"}, "[12]": {"system": "A549", "assay": "Cell cycle arrest in human A549 cells assessed as cell accumulation at G0/G1 phase at 4 uM after 48 hrs by propidium iodide staining based flow cytometry (reference value: 70.15%)", "type": "functional"}, "[13]": {"system": "A549", "assay": "Cell cycle arrest in human A549 cells assessed as cell accumulation at S phase at 4 uM after 48 hrs by propidium iodide staining based flow cytometry (reference value: […])", "type": "functional"}, "[14]": {"system": "A549", "assay": "Cell cycle arrest in human A549 cells assessed as cell accumulation at G2/M phase at 2 uM after 48 hrs by propidium iodide staining based flow cytometry (reference value: 23.75%)", "type": "functional"}, "[15]": {"system": "A549", "assay": "Cell cycle arrest in human A549 cells assessed as cell accumulation at G2/M phase at 4 uM after 48 hrs by propidium iodide staining based flow cytometry (reference value: 23.75%)", "type": "functional"}, "[16]": {"assay": "Inhibition of tubulin polymerization at 3 uM after 1 hr by fluorescence assay"}, "[17]": {"assay": "Inhibition of tubulin polymerization after 1 hr by fluorescence assay"}, "[18]": {"target": "Tubulin (Homo sapiens) (UniProt P68371+Q9H4B7+P0DPH7+P68366+Q13509+Q71U36+P04350+Q3ZCM7+P07437+P68363+Q9BQE3+Q6PEY2+Q13885+Q9BVA1+Q9BUF5)", "assay": "Inhibition of tubulin polymerization in human A549 cells assessed as disrupted microtubule organization at 2 uM after 48 hrs by immunohistochemistry analysis", "type": "cell-based"}, "[19]": {"system": "A549", "assay": "Induction of apoptosis in human A549 cells assessed as increase in caspase3 activity using AFC-conjugated Ac-DEVD as substrate at 2 uM after 48 hrs by fluorescence assay relative to control", "type": "functional"}, "[20]": {"system": "A549", "assay": "Induction of apoptosis in human A549 cells assessed as necrotic cells at 2 uM after 48 hrs by annexin-V FITC/propidium iodide staining based FACS analysis", "type": "functional"}, "[21]": {"system": "A549", "assay": "Growth inhibition of human A549 cells after 48 hrs by sulforhodamine B assay", "type": "functional", "details": "A549, 48 h"}, "[22]": {"system": "A549", "assay": "Induction of apoptosis in human A549 cells assessed as late apoptotic cells at 2 uM after 48 hrs by annexin-V FITC/propidium iodide staining based FACS analysis", "type": "functional"}, "[23]": {"system": "A549", "assay": "Induction of apoptosis in human A549 cells assessed as viable cells at 2 uM after 48 hrs by annexin-V FITC/propidium iodide staining based FACS analysis", "type": "functional", "details": "A549, 48 h, read-out: Activity"}, "[24]": {"system": "A549", "assay": "Induction of apoptosis in human A549 cells assessed as early apoptotic cells at 2 uM after 48 hrs by annexin-V FITC/propidium iodide staining based FACS analysis", "type": "functional"}, "[25]": {"system": "A-375", "assay": "Cytotoxicity against human A375 cells after 48 hrs by MTT assay", "type": "functional, cell-based", "details": "A-375, 48 h"}, "[26]": {"system": "HT-29", "assay": "Cytotoxicity against human HT-29 cells after 48 hrs by MTT assay", "type": "functional, cell-based", "details": "HT-29, 48 h, read-out: IC50"}, "[27]": {"system": "ACHN", "assay": "Cytotoxicity against human ACHN cells after 48 hrs by MTT assay", "type": "functional, cell-based"}, "[28]": {"system": "CCRF-CEM", "assay": "Growth inhibition of human CCRF-CEM cells after 48 hrs by sulforhodamine B assay", "type": "functional"}, "[29]": {"system": "K562", "assay": "Growth inhibition of human K562 cells after 48 hrs by sulforhodamine B assay", "type": "functional", "details": "K562, 48 h"}, "[30]": {"system": "MOLT-4", "assay": "Growth inhibition of human MOLT4 cells after 48 hrs by sulforhodamine B assay", "type": "functional", "details": "MOLT-4, 48 h"}, "[31]": {"system": "RPMI-8226", "assay": "Growth inhibition of human RPMI8226 cells after 48 hrs by sulforhodamine B assay", "type": "functional", "details": "RPMI-8226, 48 h"}, "[32]": {"system": "SR", "assay": "Growth inhibition of human SR cells after 48 hrs by sulforhodamine B assay", "type": "functional"}, "[33]": {"system": "EKVX", "assay": "Growth inhibition of human EKVX cells after 48 hrs by sulforhodamine B assay", "type": "functional"}, "[34]": {"system": "HOP-62", "assay": "Growth inhibition of human HOP62 cells after 48 hrs by sulforhodamine B assay", "type": "functional", "details": "HOP-62, 48 h"}, "[35]": {"system": "HOP-92", "assay": "Growth inhibition of human HOP92 cells after 48 hrs by sulforhodamine B assay", "type": "functional", "details": "HOP-92, 48 h"}, "[36]": {"system": "NCI-H226", "assay": "Growth inhibition of human NCI-H226 cells after 48 hrs by sulforhodamine B assay", "type": "functional", "details": "NCI-H226, 48 h"}, "[37]": {"system": "NCI-H23", "assay": "Growth inhibition of human NCI-H23 cells after 48 hrs by sulforhodamine B assay", "type": "functional", "details": "NCI-H23, 48 h"}, "[38]": {"system": "NCI-H322M", "assay": "Growth inhibition of human NCI-H322M cells after 48 hrs by sulforhodamine B assay", "type": "functional"}, "[39]": {"system": "NCI-H460", "assay": "Growth inhibition of human NCI-H460 cells after 48 hrs by sulforhodamine B assay", "type": "functional", "details": "NCI-H460, 48 h"}}, "note": "Active and inactive are the calls of the source. The calls are words filed in the database; no cut-off is given here.", "data": [{"compound": "COc1ccc(/C=C/C(=O)c2cc(OC)c(OC)c(OC)c2)cc1OCC(=O)Nc1nc2ccc(OC(F)(F)F)cc2s1", "values": [{"measurement": "GI50", "setting": "[1]", "result": 2260, "unit": "nM"}, {"measurement": "GI50", "setting": "[2]", "result": 7400, "unit": "nM"}, {"measurement": "GI50", "setting": "[3]", "result": 1620, "unit": "nM"}, {"measurement": "GI50", "setting": "[4]", "result": 2200, "unit": "nM"}, {"measurement": "GI50", "setting": "[5]", "result": 1580, "unit": "nM"}, {"measurement": "GI50", "setting": "[6]", "result": 1740, "unit": "nM"}, {"measurement": "GI50", "setting": "[7]", "result": 2080, "unit": "nM"}, {"measurement": "GI50", "setting": "[8]", "result": 1610, "unit": "nM"}, {"measurement": "Activity", "setting": "[9]", "result": 4.5, "unit": "%"}, {"measurement": "Activity", "setting": "[10]", "result": 3.21, "unit": "%"}, {"measurement": "Activity", "setting": "[11]", "result": 8.51, "unit": "%"}, {"measurement": "Activity", "setting": "[12]", "result": 8.68, "unit": "%"}, {"measurement": "Activity", "setting": "[13]", "result": 4.95, "unit": "%"}, {"measurement": "Activity", "setting": "[14]", "result": 80.73, "unit": "%"}, {"measurement": "Activity", "setting": "[15]", "result": 83.21, "unit": "%"}, {"measurement": "inhibition", "setting": "[16]", "result": 63.1, "unit": "%"}, {"measurement": "IC50", "setting": "[17]", "result": 5200, "unit": "nM"}, {"measurement": "inhibition", "setting": "[18]", "result": "Active"}, {"measurement": "fold change (FC)", "setting": "[19]", "result": 4}, {"measurement": "Activity", "setting": "[20]", "result": 6.2, "unit": "%"}, {"measurement": "GI50", "setting": "[21]", "result": 1990, "unit": "nM"}, {"measurement": "Activity", "setting": "[22]", "result": 74.9, "unit": "%"}, {"measurement": "viability at 2 µM", "setting": "[23]", "result": 30.4, "unit": "%"}, {"measurement": "Activity", "setting": "[24]", "result": 1.3, "unit": "%"}, {"measurement": "IC50", "setting": "[25]", "result": 2400, "unit": "nM"}, {"measurement": "IC50", "setting": "[26]", "result": 1100, "unit": "nM"}, {"measurement": "IC50", "setting": "[27]", "result": 1730, "unit": "nM"}, {"measurement": "GI50", "setting": "[28]", "result": 2500, "unit": "nM"}, {"measurement": "GI50", "setting": "[29]", "result": 430, "unit": "nM"}, {"measurement": "GI50", "setting": "[30]", "result": 2890, "unit": "nM"}, {"measurement": "GI50", "setting": "[31]", "result": 2020, "unit": "nM"}, {"measurement": "GI50", "setting": "[32]", "result": 390, "unit": "nM"}, {"measurement": "GI50", "setting": "[33]", "result": 5110, "unit": "nM"}, {"measurement": "GI50", "setting": "[34]", "result": 2120, "unit": "nM"}, {"measurement": "GI50", "setting": "[35]", "result": 2140, "unit": "nM"}, {"measurement": "GI50", "setting": "[36]", "result": 3350, "unit": "nM"}, {"measurement": "GI50", "setting": "[37]", "result": 2150, "unit": "nM"}, {"measurement": "GI50", "setting": "[38]", "result": 2770, "unit": "nM"}, {"measurement": "GI50", "setting": "[39]", "result": 2430, "unit": "nM"}]}]}
